Patent US20260256790A1, “DEBIO-0123 IN COMBINATION WITH TEMOZOLOMIDE AND RADIOTHERAPY FOR USE IN TREATING GLIOMA” (Debiopharm International S.A., priority 2023, published 2026)
Where two headings read alike, the source gives them in different places.

Assays:
[1] = Free fraction in rat plasma (separate experiment, not shown); format: in vitro ADME
[2] = Plasma, brain and CSF concentrations (PK) in healthy rats after single oral dose; format: in vivo, Wistar Han rats; details: 15 mg/kg p.o. single dose; for Kp: 15 mg/kg
Description: Healthy male Wistar Han rats were treated orally with a single dose of 15 mg/kg Compound of formula (I) (24 rats in total, 3 rats per time-point). Compound of formula (I) was formulated as a suspension in 0.5% methylcellulose with 1% Tween 80 and administered at a concentration of 1.5 mg/mL with a dosing volume of 10 mL/kg.
At designated time-points (0.5; 1; 2; 4; 8; 24; 32; 48 hrs post-dose), the rats were euthanized by carbon dioxide inhalation. Thereafter, blood, CSF, and brain samples were collected as follows. Blood samples were collected by cardiac puncture into K2EDTA containing tubes. The tubes were inverted several times, placed on ice and centrifuged within 30 min of collection (4° C. for 5 min at 6000 rpm) to obtain plasma. The plasma samples were snap frozen in dry ice and stored at −80° C. until analysis. The CSF samples were collected by using a scalp-needle to puncture the foramen magnum. The CSF samples were acidified with 10% formic acid (final sample concentration of 0.5% formic acid) and stored in −80° C. until further analysis. The brain was collected, weighed and snap frozen in dry ice until further analysis. To obtain brain homogenates, firstly water was added to each brain (brain weight:water volume=1:4) then the brain was homogenized with a H-speed dispersator (time procedure: homogenizing for 10 s and interval of 10 s per time, total 3-5 times; cleaning procedure for dispersator: Water-Methanol-Ethanol-Water, 10 s each). The brain homogenate samples were transferred to individual tubes and stored at −80° C. prior to analysis.
The samples were analyzed as follows. For each analytical batch of plasma and brain samples, the standard and quality control (QC) samples were freshly prepared in blank male Wistar Han plasma (with K2EDTA anticoagulant) and brain homogenate. Acidified (containing 0.5% formic acid) artificial CSF was used as standard and quality control for the CSF samples. Additionally, one set of blank male Wistar Han CSF was included as QC sample.
To an aliquot of each standard, QC, control blank and study samples, internal standard (^13CD6-Compound of formula (I)) in methanol/acetonitrile (1:1, v/v) was added. The samples were mixed for 1 minute and centrifuged at 4000 rpm at 4° C. for 15 minutes. Supernatants were transferred and diluted in MeOH/water (1:1, v/v, with 0.1% FA) prior to LC-MS/MS injection.
Chromatographic separation was achieved on a Shimadzu LC-20AD (for plasma and brain samples) or Shimadzu LC-30AD (for CSF samples) using a Kinetex 2.6μ C18 100A column (50 mm*3.00 mm; for plasma and brain samples) or an ACE 5 C4 column (50 mm*2.1 mm; for CSF samples). The following conditions were applied: flow rate: 0.7 mL/min; run time: 3.0 min; mobile phase: A: 5 mM NH4OAc (0.1% FA), B: Acetonitrile (0.1% FA).
Detection was accomplished with an AB Sciex 5500 utilizing electrospray MS/MS in positive ion multiple reaction monitoring mode (MRM). The MRM channels were 511.29/98 for Compound of formula (I) and 518.17/102.10 for the internal standard ^13CD6-Compound of formula (I).
The measured plasma, CSF and brain concentrations at each time-point, the nominal sample collection time, and intended dosages were used for pharmacokinetic analysis. The PK parameters of all study compounds were determined by non-compartmental analysis using WinNonlin Version 8.0 (Pharsight).

SMILES: Cc1cc(Nc2ncc3c(n2)N(C)CN(c2c(Cl)cccc2Cl)C3=O)ccc1C1CCN(C)CC1 [Compound of formula (I)]
- fraction unbound [1]: 0.078
- AUCInf, brain [2]: 8415 ng·h/g
- AUCLast, brain [2]: 8383 ng·h/g
- Cmax, CSF [2]: 0.0156 µg/mL
- Cmax, brain [2]: 588 ng/g
- AUC(0-inf) ([2]; male, Wistar Han, rat, CSF, po, read-out: AUCInf, CSF): 0.221 µg·h/mL
- AUC(0-t) ([2]; male, Wistar Han, rat, CSF, po, read-out: AUCLast, CSF): 0.219 µg·h/mL
- Kp ([2]; male, Wistar Han, rat, CSF/unbound plasma, oral, unbound plasma from free fraction 7.8%, read-out: CSF to unbound plasma ratio based on AUCInf): 0.2
- Kp ([2]; male, Wistar Han, rat, CSF/unbound plasma, oral, unbound plasma from free fraction 7.8%, read-out: CSF to unbound plasma ratio based on AUCLast): 0.2
- Kp ([2]; male, Wistar Han, rat, CSF/unbound plasma, oral, unbound plasma from free fraction 7.8%, read-out: CSF to unbound plasma ratio based on Cmax): 0.18
- Kp ([2]; male, Wistar Han, rat, brain/plasma, po, read-out: Brain to plasma ratio based on AUCInf): 0.6
- Kp ([2]; male, Wistar Han, rat, brain/plasma, po, read-out: Brain to plasma ratio based on AUCLast): 0.6
- Kp ([2]; male, Wistar Han, rat, brain/plasma, po, read-out: Brain to plasma ratio based on Cmax): 0.52
- Cmax ([2]; male, Wistar Han, rat, plasma, po): 1.14 µg/mL
- AUC(0-inf) ([2]; male, Wistar Han, rat, plasma, po, read-out: AUCInf, plasma): 14.1 µg·h/mL
- AUC(0-t) ([2]; male, Wistar Han, rat, plasma, po, read-out: AUCLast, plasma): 14.1 µg·h/mL
